Measured values taken from ChEMBL document CHEMBL5046251, “Discovery of a Series of Pyrimidine Carboxamides as Inhibitors of Vanin-1” (J Med Chem, 2022).
Active and inactive are the calls of the source. The rule behind the calls is not given here.

What was measured:
[1] = Intrinsic clearance in human liver microsomes; assay type: ADME, Microsome
[2] = Lipophilicity, log D of the compound in Octanol/buffer by shake-flask method
[3] = Apparent permeability across apical to basolateral side in RRCK cells; settings: dog, MDCK
Biotinidase = target: T1, Biotinidase (Homo sapiens, UniProt P43251); experiment: Inhibition of N-terminal FLAG/His6-tagged human biotinidase expressed in COS cells using biotinyl-7-amino-4-trifluoromethylcoumarin as substrate preincubated for 10 mins followed by substrate addition and measured after 90 mins; assay type: cell-based
T1 sequence (P43251 whole entry): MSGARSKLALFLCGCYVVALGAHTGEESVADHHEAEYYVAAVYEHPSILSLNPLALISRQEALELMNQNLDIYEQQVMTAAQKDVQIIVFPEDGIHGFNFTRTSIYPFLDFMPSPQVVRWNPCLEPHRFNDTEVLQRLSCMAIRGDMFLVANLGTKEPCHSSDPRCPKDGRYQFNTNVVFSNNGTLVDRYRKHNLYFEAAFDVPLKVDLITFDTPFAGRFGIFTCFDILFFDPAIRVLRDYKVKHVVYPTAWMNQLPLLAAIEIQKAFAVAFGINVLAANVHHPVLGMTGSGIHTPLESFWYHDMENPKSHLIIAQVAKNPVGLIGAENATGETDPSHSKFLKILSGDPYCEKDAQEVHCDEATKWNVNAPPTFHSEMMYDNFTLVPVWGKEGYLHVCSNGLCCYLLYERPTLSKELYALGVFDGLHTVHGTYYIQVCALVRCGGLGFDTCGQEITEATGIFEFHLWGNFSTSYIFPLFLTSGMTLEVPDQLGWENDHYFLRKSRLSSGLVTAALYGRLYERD

Pantetheinase [4] = target: T2, Pantetheinase (Homo sapiens, UniProt O95497); experiment: Inhibition of recombinant N-terminal FLAG/His6-tagged human vanin-1 expressed in CHO cells using Pantetheine-7-amino-4-trifluoromethykournarin as substrate preincubated for 30 mins followed by substrate addition and measured after 60 mins
T2 sequence (O95497 whole entry): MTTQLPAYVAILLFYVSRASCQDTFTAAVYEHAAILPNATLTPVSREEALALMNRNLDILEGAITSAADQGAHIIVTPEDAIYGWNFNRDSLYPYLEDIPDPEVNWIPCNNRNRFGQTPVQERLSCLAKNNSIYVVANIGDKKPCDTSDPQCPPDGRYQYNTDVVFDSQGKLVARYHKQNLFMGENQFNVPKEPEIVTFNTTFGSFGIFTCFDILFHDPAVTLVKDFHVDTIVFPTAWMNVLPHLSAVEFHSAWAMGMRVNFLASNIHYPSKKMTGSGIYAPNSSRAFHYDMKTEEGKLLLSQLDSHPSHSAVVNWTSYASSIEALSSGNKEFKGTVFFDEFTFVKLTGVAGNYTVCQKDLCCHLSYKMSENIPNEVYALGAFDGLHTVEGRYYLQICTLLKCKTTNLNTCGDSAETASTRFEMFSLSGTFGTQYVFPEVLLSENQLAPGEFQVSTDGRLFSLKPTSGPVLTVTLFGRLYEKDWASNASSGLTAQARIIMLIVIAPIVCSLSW

Pantetheinase [5] = target: T3, Pantetheinase (Mus musculus, UniProt Q9Z0K8); experiment: Inhibition of mouse vanin-1
T3 sequence (Q9Z0K8 whole entry): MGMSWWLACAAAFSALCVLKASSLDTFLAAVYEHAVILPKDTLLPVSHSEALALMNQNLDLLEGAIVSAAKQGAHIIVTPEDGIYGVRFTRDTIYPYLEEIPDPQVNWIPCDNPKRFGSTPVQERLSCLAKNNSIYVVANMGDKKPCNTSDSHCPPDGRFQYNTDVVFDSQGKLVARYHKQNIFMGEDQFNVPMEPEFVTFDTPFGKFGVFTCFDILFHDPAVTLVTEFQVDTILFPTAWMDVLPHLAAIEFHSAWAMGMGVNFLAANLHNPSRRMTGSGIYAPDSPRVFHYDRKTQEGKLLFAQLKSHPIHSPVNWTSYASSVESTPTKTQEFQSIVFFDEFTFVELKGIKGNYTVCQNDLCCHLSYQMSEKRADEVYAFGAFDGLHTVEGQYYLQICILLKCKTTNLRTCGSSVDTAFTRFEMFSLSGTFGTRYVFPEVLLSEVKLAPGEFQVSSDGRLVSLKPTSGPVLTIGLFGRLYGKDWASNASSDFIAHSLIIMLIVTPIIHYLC

[6] = Intrinsic clearance in rat hepatocytes assessed per million cells; assay type: ADME, cell-based, Hepatocyte
Pantetheinase [7] = target: T2, Pantetheinase; experiment: Inhibition of human plasma vanin-1 using pantetheine-7-amino-4-trifluoromethykournarin as substrate preincubated for 30 mins followed by substrate addition; assay type: cell-free
[8] = Intrinsic clearance in human hepatocytes assessed per million cells; assay type: ADME, cell-based, Hepatocyte
[9] = Intrinsic clearance in human hepatocytes assessed per million cells by relay assay method; assay type: ADME, cell-based, Hepatocyte
Mus musculus [10] = experiment: Anti-colitis activity against DSS-induced colitis BALB/c mouse model assessed as effect on colon length at 100 mg/kg, po measured after 14 days; assay type: functional, organism-based; settings: time 14.0 day
Mus musculus [11] = experiment: Anti-colitis activity against DSS-induced BALB/c mouse model assessed as reduction in disease activity index at 100 mg/kg, po administered for 5 to 14 days; assay type: functional, organism-based; settings: time 5-14 day
Mus musculus [12] = experiment: Anti-colitis activity against DSS-induced BALB/c mouse model assessed as increase in body weight at 100 mg/kg, po administered for 5 to 14 days; assay type: functional, organism-based; settings: time 5-14 day
Pantetheinase [13] = target: T2, Pantetheinase; experiment: Inhibition of recombinant N-terminal FLAG/His6-tagged human vanin-1 expressed in CHO cells at 10 uM by 1H NMR analysis; assay type: cell-based
[14] = target: T4, Pantetheinase (Homo sapiens) (UniProt O95497); experiment: Binding affinity to recombinant N-terminal FLAG/His6-tagged human vanin-1 expressed in CHO cells assessed as dissociative half life by surface plasmon resonance analysis
T4 sequence (whole entry): T2 sequence (O95497 whole entry)

Pantetheinase [15] = target: T2, Pantetheinase; experiment: Binding affinity to recombinant N-terminal FLAG/His6-tagged human vanin-1 expressed in CHO cells assessed as dissociation constant by surface plasmon resonance analysis
[16] = target: T4, Pantetheinase (Homo sapiens); experiment: Binding affinity to recombinant N-terminal FLAG/His6-tagged human vanin-1 expressed in CHO cells assessed as binding constant (Koff) by surface plasmon resonance analysis
[17] = target: T4, Pantetheinase (Homo sapiens); experiment: Binding affinity to recombinant N-terminal FLAG/His6-tagged human vanin-1 expressed in CHO cells assessed as binding constant (Kon) by surface plasmon resonance analysis

Intrinsic clearance [1] [µL/min/mg]	logD [2]	Papp A→B [3] [×10⁻⁶ cm/s]	IC50 (Biotinidase) [nM]	IC50 (Pantetheinase [4]) [nM]	Structure (SMILES)	further results
26	3	23			N#Cc1cccc(C(=O)c2cnc(NC3(c4ccccc4)CC3)nc2)c1	
< 13	0.6	14	1200	0.11	CC(C)(Nc1ncc(C(=O)N2CC3(CCOCC3)C2)cn1)c1cnccn1	IC50 (Pantetheinase [5]): 0.41 nM; CLint [6]: 25.8 µL/min/1e6 cells; IC50 (Pantetheinase [7]): 0.88 nM; CLint [8]: < 3.5 µL/min/1e6 cells; CLint [9]: 1.66 µL/min/1e6 cells
< 8	1	11	> 50000		C[C@@H](Nc1ncc(C(=O)N2CCC3(CCOCC3)C2)cn1)c1cnccn1	
32	2	8			O=C(c1cnc(NC2(c3cncnc3)CCC2)nc1)N1CCC2(CCOCC2)C1	
14	1	12	8900	0.04	O=C(c1cnc(NC2(c3cnccn3)CCC2)nc1)N1CCC2(CCOCC2)C1	
12	0	3	11000		O=C(c1cnc(NCc2cncnc2)nc1)N1CCC2(CCOCC2)C1	
51	2.9	17		52	Cc1cccc(C(=O)c2cnc(NCc3cccnc3)nc2)c1	
< 8	-2	2			O=C(c1cnc(NC2(c3cnccn3)COC2)nc1)N1CCC2(CCOCC2)C1	
				1200	N#C[C@H]1CCCN(C(=O)c2cnc(NC3(c4cncnc4)CC3)nc2)C1	
29	2.5	28		53	O=C(c1ccccc1)c1cnc(NCc2cccnc2)nc1	
< 8	-3	< 0.2	1300		O=C(c1cnc(NC2(c3cncnc3)COC2)nc1)N1CCC2(CCOCC2)C1	
< 8	0	9	7400		O=C(c1cnc(NCc2cnccn2)nc1)N1CC2(CCOCC2)C1	

Further lines, the compound ahead of its results:

Structure (SMILES)	Intrinsic clearance [1] [µL/min/mg]	logD [2]	Papp A→B [3] [×10⁻⁶ cm/s]	IC50 (Biotinidase) [nM]	IC50 (Pantetheinase [4]) [nM]	further results
CS(=O)(=O)[C@@H]1CCCN(C(=O)c2cnc(NC3(c4cncnc4)CC3)nc2)C1	< 8	-1	0.6	62000	10.6	
N#Cc1cccc(C(=O)c2cnc(NCc3ccccc3)nc2)c1	48	3	19			
N#Cc1cccc(C(=O)c2cnc(NCc3cncnc3)nc2)c1	16	1.2	23		33	
O=C(c1cnc(NCc2cccnc2)nc1)c1cccs1	14.5	2.2	24			
O=C(c1cnc(NC2(c3cncnc3)CC2)nc1)N1CCC2(CCOCC2)C1	< 10	0	2	1020		
O=C(c1cnc(NCc2cccnc2)nc1)N1CCC2(CCOCC2)C1	< 8	0.7	6	11300		
O=C(O)c1cc(/N=N/c2ccc(S(=O)(=O)Nc3ccccn3)cc2)ccc1O						Activity (Mus musculus [10]): Active; Activity (Mus musculus [11]): inactive; Activity (Mus musculus [12]): Active
C[C@@H](Nc1ncc(C(=O)N2CCC3(CCOCC3)C2)cn1)c1cncnc1	< 8	0.2	6	> 50000		
C[C@H](Nc1ncc(C(=O)N2CC3(CCOCC3)C2)cn1)c1cnccn1	< 8	0.2	16	40	0.6	
C[C@H](Nc1ncc(C(=O)N2CCC3(CCOCC3)C2)cn1)c1cncnc1	< 8	2	7			
N#Cc1cccc(C(=O)c2cnc(NCc3cccnc3)nc2)c1	38	2	28		4.4	
N#C[C@@H]1CCCN(C(=O)c2cnc(NC3(c4cncnc4)CC3)nc2)C1	< 8	-0.4	1.7	12700	52	
N#CC1CCCN(C(=O)c2cnc(NC3(c4cncnc4)CC3)nc2)C1 (racemic)	< 11	-0.3	1.5	53000	10.4	IC50 (Pantetheinase [13]): 45 nM; T1/2 [14]: 26 s; Kd (Pantetheinase [15]): 7.2 nM; K [16]: 0.026 s⁻¹; K [17]: 6 10^6/M/s
CC(C)(Nc1ncc(C(=O)N2CCC3(CCOCC3)C2)cn1)c1cnccn1	18	0.6	17	3600	0.06	
CS(=O)(=O)[C@H]1CCCN(C(=O)c2cnc(NC3(c4cncnc4)CC3)nc2)C1	< 8	-1	0.6		1100	
O=C(c1cnc(NC2(c3cnccn3)CCC2)nc1)N1CC2(CCOCC2)C1	19	0.8	17		0.04	
CS(=O)(=O)C1CCCN(C(=O)c2cnc(NC3(c4cncnc4)CC3)nc2)C1 (racemic)	< 8	-0.8	0.9	> 13000	203	IC50 (Pantetheinase [13]): 122 nM; T1/2 [14]: 79 s; Kd (Pantetheinase [15]): 37 nM; K [16]: 0.0088 s⁻¹; K [17]: 4.1 10^5/M/s
CC(C)(Nc1ncc(C(=O)N2CCC3(CCOCC3)C2)cn1)c1cncnc1	15	0.5	4	1900	0.08	
